The text below walks through data of ChEMBL document CHEMBL1130440, “N-Methyl-2-[4-(2-methylpropyl)phenyl]-3-(3-methoxy-5-methylpyrazin-2-ylsulfamoyl)benzamide; one of a class of novel benzenesulphonamides which are orally-active, ETA-selective endothelin antagonists” (Bioorg Med Chem Lett, 1997).

For experiment [1], the system named is Rattus norvegicus. The experiment in a line: In vivo mean dose ratio (MDR) activity against the pressor response induced by big ET-1 in alderley park rats at 1 hr after (1 mg/kg) oral administration. The experiment is classed as functional.
Another experiment concerns the target T1, Endothelin-1 receptor (Homo sapiens, UniProt P25101).
T1 sequence (P25101 whole entry): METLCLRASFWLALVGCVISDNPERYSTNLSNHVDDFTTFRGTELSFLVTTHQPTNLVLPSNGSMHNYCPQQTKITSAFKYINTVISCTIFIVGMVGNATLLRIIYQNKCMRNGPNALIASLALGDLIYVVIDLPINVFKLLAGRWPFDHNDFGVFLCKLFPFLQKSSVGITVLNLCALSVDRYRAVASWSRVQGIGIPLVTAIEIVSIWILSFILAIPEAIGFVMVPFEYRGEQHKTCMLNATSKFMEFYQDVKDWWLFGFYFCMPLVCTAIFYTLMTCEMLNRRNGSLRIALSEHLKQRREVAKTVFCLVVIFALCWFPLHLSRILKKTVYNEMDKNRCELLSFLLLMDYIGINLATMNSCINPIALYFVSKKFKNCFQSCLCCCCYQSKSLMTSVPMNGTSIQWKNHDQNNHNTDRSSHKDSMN
The experiment can be described thus: In vitro binding was measured by the displacement of [125I]ET1 from membranes prepared from MEL cells transfected with cloned human ETA receptors. The class given is cell membranes.

Experiment [2] relates to Rattus norvegicus. The experiment in a line: In vivo mean dose ratio(MDR) activity against the pressor response induced by big ET-1 in alderley park rats at 30 min after (2.5 mg/kg) oral administration. The class given is functional.
The subject of experiment [3] is Rattus norvegicus. The experiment can be described thus: In vivo mean dose ratio(MDR) activity against the pressor response induced by big ET-1 in alderley park rats at 4 hr after (2.5 mg/kg) oral administration. The class given is functional.
The test system of experiment [4] is Rattus norvegicus. The experiment can be described thus: In vivo mean dose ratio(MDR) activity against the pressor response induced by big ET-1 in alderley park rats at 2 hr after (2.5 mg/kg) oral administration. The class given is functional.

As for `COCCNC(=O)c1cccc(S(=O)(=O)Nc2ncc(C)nc2OC)c1-c1ccc(CC(C)C)cc1`, in the experiment on Rattus norvegicus [1], the MDR amounted to 3.2. For the same molecule, on Endothelin-1 receptor, the IC50 was 0.501 nM.

Take `COc1nc(Br)cnc1NS(=O)(=O)c1ccccc1-c1ccccc1`: the IC50 on Endothelin-1 receptor is 31.6 nM.

Turning to `COc1nc(C)cnc1NS(=O)(=O)c1cccc(C(N)=O)c1-c1ccc(CC(C)C)cc1`, in the experiment with Rattus norvegicus [1], the MDR is on record as 2.4. At Endothelin-1 receptor, the IC50 is 1 nM.

As for `COc1nc(Br)cnc1NS(=O)(=O)c1cccc(C(=O)N(C)C)c1-c1ccc(CC(C)C)cc1`, the half-maximal inhibitory concentration (IC50) at Endothelin-1 receptor is 1 nM.

For `COc1nc(Br)cnc1NS(=O)(=O)c1ccccc1-c1ccc(CC(C)C)cc1`, at Endothelin-1 receptor, the 50% inhibitory concentration (IC50) was 39.8 nM.

Regarding `COc1nc(C)cnc1NS(=O)(=O)c1cccc(C(=O)N(C)C)c1-c1ccc(CC(C)C)cc1`, the MDR in the experiment with Rattus norvegicus [1] came to 1.6. For the same molecule, the IC50 on Endothelin-1 receptor was 2.51 nM.

Consider `COc1nc(C)cnc1NS(=O)(=O)c1cccc(C(=O)NCCO)c1-c1ccc(CC(C)C)cc1`, for which the MDR in the experiment on Rattus norvegicus [1] stood at 4.2. The same molecule showed an IC50 at Endothelin-1 receptor of 0.631 nM.

With `COCCNC(=O)c1cccc(S(=O)(=O)Nc2ncc(Br)nc2OC)c1-c1ccc(CC(C)C)cc1`, the MDR with Rattus norvegicus [1] was determined as 2.1. At Endothelin-1 receptor, this molecule had an IC50 of 1.58 nM.

In turn, `CNC(=O)c1cccc(S(=O)(=O)Nc2ncc(Br)nc2OC)c1-c1ccccc1` had an IC50 at Endothelin-1 receptor of 39.8 nM.

For `COc1nc(Br)cnc1NS(=O)(=O)c1cccc(C(N)=O)c1-c1ccc(CC(C)C)cc1`, on Endothelin-1 receptor, the IC50 was 0.794 nM.

As to `CNC(=O)c1cccc(S(=O)(=O)Nc2ncc(C)nc2OC)c1-c1ccc(CC(C)C)cc1`, the Oral activity in the experiment on Rattus norvegicus [2] is on record as 6.2; in the experiment on Rattus norvegicus [3] it was 4; in the experiment on Rattus norvegicus [4], 3.3. Moreover, the MDR in the experiment on Rattus norvegicus [1] was 3.2. Also, on Endothelin-1 receptor, the IC50 was 0.501 nM.

At Endothelin-1 receptor, `CCCCCNC(=O)c1cccc(S(=O)(=O)Nc2ncc(Br)nc2OC)c1-c1ccccc1` had a 50% inhibitory concentration (IC50) of 3.98 nM.

On Endothelin-1 receptor, `COc1nc(Br)cnc1NS(=O)(=O)c1cccc(C(N)=O)c1-c1ccccc1` showed a half-maximal inhibitory concentration (IC50) of 39.8 nM.

Consider `CNC(=O)c1cccc(S(=O)(=O)Nc2ncc(Br)nc2OC)c1-c1ccc(CC(C)C)cc1`, for which the MDR in the experiment with Rattus norvegicus [1] is 2.7. The same molecule had an IC50 at Endothelin-1 receptor of 1.26 nM.

`CCCCCNC(=O)c1cccc(S(=O)(=O)Nc2ncc(Br)nc2OC)c1-c1ccc(CC(C)C)cc1` had an IC50 at Endothelin-1 receptor of 200 nM.
